Results on two compounds are retold here after ChEMBL document CHEMBL5728088, “Aryl sulfonohydrazides” (2020).

Usually pIC50 stands for −log10 of the IC50, conventionally taken in molar units. A high value points to a small IC50.

The experiment is described as follows: Biochemical Assay: Active Moz protein was expressed as N-terminal fusion protein with a His6 tag in BL21 E. coli cells. Protein purification was performed via nickel-immobilized metal ion affinity chromatography followed by gel filtration. […] The reactions were performed in assay buffer (100 mM Tris-HCl, pH 7.8, 15 mM NaCl, 1 mM EDTA, 0.01% Tween-20, 1 mM Dithiothreitol, and 0.02% m/v chicken egg white albumin). Reactions were set up with 0.4 μM Acetyl coenzyme A (AcCoA), 50 nM N-terminal histone H4 peptide (sequence […]-GGK-biotin), 10 nM MOZ enzyme, and an acetyl-lysine specific antibody (final dilution 1:10000). 11-point dilution series of the compounds of the invention were prepared in DMSO; a volume of 100 nL was transferred using a pin tool into assay plates containing substrates, before adding enzyme to start the reaction. Positive (no compound) and negative (AcCoA omitted) control reactions were included on the same plates and received the same amount of DMSO as the compound treated wells. After adding all reagents, the plates were sealed with adhesive seals and incubated for 90 minutes at room temperature. An additional 4 μL of assay buffer containing AlphaScreen® Protein A acceptor beads and Streptavidin donor beads (PerkinElmer, Waltham, Mass.) to a final concentration of 4 μg/mL was then added. […].

SMILES strings stand for the structures. pIC50: −log10 of the molar value.

The compound `O=C(NNS(=O)(=O)c1ccc2ccccc2c1)c1cccc(-c2cccnc2)c1` had a negative logarithm of the IC50 (pIC50) of 4.88. Take `O=C(NNS(=O)(=O)c1ccccc1F)c1cc(-c2ccc(F)cc2)ccc1F`: the negative-log IC50 (pIC50) was 6.08.
